The target in test [1] is 5-HT1B (Homo sapiens, UniProt P28222). Description: NIMH PDSP radioligand competition binding, 5-HT1B. In general terms: Loss of bound radioactivity is the signal in a displacement assay; it reports binding, not function.
Test [2] has as its target 5-HT1D (Homo sapiens, UniProt P28221). Description: NIMH PDSP radioligand competition binding, 5-HT1D.
Test [3] has as its target 5-HT2A (Homo sapiens, UniProt P28223). In words: NIMH PDSP radioligand competition binding, 5-HT2A.
The target of test [4] is 5-HT2B (Homo sapiens, UniProt P41595). Description: NIMH PDSP radioligand competition binding, 5-HT2B.
Test [5] addresses 5-HT5A (Homo sapiens, UniProt P47898). Description: NIMH PDSP radioligand competition binding, 5-HT5A.
Test [6] deals with 5-HT6 (Homo sapiens, UniProt P50406). Description: NIMH PDSP radioligand competition binding, 5-HT6.
In test [7] the target is 5-HT7 (Homo sapiens, UniProt P34969). In words: NIMH PDSP radioligand competition binding, 5-HT7.
For test [8], the target named is T1, α1B (Homo sapiens, UniProt P35368).
T1 sequence (P35368 1-520): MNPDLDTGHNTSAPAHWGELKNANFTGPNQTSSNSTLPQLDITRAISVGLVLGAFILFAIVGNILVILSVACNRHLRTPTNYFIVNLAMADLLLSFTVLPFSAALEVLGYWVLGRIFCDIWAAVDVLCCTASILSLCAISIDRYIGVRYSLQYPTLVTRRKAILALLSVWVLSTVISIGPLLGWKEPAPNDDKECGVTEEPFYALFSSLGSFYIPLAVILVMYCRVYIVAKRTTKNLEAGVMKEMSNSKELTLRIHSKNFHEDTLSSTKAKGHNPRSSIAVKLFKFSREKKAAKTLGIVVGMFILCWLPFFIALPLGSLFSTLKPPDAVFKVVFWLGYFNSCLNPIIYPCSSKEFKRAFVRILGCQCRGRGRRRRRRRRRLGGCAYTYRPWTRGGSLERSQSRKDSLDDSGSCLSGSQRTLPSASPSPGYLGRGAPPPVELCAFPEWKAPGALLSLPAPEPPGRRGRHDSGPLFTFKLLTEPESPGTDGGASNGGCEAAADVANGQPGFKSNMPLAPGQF
Description: NIMH PDSP radioligand competition binding, α1B.

Test [9] addresses T2, α1D (Homo sapiens, UniProt P25100).
T2 sequence (P25100 1-572): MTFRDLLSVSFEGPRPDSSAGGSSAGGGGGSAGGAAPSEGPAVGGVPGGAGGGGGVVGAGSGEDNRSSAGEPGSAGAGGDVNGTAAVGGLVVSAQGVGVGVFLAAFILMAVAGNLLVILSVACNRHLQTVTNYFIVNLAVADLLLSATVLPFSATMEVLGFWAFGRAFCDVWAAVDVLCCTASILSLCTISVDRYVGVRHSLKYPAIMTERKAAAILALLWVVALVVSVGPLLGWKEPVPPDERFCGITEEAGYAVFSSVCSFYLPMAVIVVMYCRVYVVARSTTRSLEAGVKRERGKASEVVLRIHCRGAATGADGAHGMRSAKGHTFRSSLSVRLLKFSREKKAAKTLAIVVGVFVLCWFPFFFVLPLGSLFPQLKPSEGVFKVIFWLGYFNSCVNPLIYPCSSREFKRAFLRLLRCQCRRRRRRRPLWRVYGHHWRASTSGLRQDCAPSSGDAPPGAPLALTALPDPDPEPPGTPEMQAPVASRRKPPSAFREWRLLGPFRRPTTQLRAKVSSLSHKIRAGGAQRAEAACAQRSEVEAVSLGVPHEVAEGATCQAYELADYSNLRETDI
In words: NIMH PDSP radioligand competition binding, α1D.

Test [10] concerns the target T3, α2A (Homo sapiens, UniProt P08913).
T3 sequence (P08913 1-465): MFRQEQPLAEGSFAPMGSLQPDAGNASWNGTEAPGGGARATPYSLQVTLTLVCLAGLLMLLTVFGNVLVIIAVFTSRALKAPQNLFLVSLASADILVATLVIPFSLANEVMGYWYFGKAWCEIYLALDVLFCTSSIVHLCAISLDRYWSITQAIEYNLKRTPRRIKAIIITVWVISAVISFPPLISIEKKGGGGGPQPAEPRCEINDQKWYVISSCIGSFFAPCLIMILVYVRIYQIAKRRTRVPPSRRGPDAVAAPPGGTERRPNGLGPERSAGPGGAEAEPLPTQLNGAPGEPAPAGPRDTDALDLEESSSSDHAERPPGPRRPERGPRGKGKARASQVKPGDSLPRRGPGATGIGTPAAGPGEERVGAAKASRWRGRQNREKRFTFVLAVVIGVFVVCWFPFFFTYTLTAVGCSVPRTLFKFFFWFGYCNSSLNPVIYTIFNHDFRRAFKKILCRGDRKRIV
In words: NIMH PDSP radioligand competition binding, α2A.

In test [11] the target is norepinephrine transporter (NET) (Homo sapiens, UniProt P23975). In words: NIMH PDSP radioligand competition binding, NET.
Test [12] deals with T4, D4 (Homo sapiens, UniProt P21917).
T4 sequence (P21917 1-419): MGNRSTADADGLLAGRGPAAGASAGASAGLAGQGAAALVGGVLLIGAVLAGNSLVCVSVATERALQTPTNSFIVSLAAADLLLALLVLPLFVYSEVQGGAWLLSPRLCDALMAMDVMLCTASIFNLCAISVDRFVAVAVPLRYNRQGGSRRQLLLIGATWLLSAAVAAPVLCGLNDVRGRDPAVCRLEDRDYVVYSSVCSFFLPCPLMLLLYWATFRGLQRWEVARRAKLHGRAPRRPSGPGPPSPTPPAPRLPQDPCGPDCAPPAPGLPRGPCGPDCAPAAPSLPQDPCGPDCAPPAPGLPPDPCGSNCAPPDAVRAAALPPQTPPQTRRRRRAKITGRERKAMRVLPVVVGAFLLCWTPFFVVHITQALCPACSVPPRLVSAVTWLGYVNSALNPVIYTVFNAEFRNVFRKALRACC
In words: NIMH PDSP radioligand competition binding, D4.

The target in test [13] is κ-opioid receptor (KOR) (Homo sapiens, UniProt P41145). Description: NIMH PDSP radioligand competition binding, KOR.
Test [14] deals with H1 (Homo sapiens, UniProt P35367). Description: NIMH PDSP radioligand competition binding, H1.
In test [15] the target is H2 (Homo sapiens, UniProt P25021). Description: NIMH PDSP radioligand competition binding, H2.
Setting [16] is: Binding Affinity (Ki, nM), [3H]N-methylspiperone, cloned human receptor.
Setting [17] is: Binding Affinity (Ki, nM), [3H]tiotidine, cloned human receptor.

For orientation: Ki means a dissociation constant, usually derived from enzyme kinetics or from competition with a known ligand. As to `C=CCN(CC=C)CCc1c(-c2ccccc2)[nH]c2ccccc12` [2-Ph-DALT, 2-phenyl-N,N-diallyltryptamine], the inhibition constant (Ki) worked out at 273 nM in test [1]; 204 nM in test [2]; 13 nM in [3]; 192 nM in test [4]; 1670 nM in test [5]; 68 nM in test [6]. Moreover, the Ki is above 10000 nM in [7]; 904 nM in test [8]; 243 nM in [9]; 85 nM in [10]; 420 nM in test [11]; 1000 nM in test [12] (setting [16]). Besides, the inhibitory constant (Ki) in test [12] (Ki value, bound stated) was below 10000 nM; in [13], 589 nM; in test [14], 79 nM; in test [15] (setting [17]) it was 367 nM; in test [15] (Ki value, bound stated) it was below 10000 nM. The “5-HT2A binding affinity, fold higher than the affinity of DALT” value in [3] turned out to be 54 fold. The “5-HT2A binding affinity, fold higher than the affinity of any other DALT derivative” value in test [3] (relative to any other DALT derivative) is recorded as “at least 10 fold”.

With `C=CCN(CC=C)CCc1c[nH]c2cccc(OC(C)=O)c12` [4-AcO-DALT, 4-acetoxy-N,N-diallyltryptamine], the Ki in [1] is above 10000 nM; in test [2] it was 801 nM; in test [3], 565 nM; in test [4], 63 nM; in [5], 5840 nM; in [6] it was 1790 nM. For the same compound, the inhibitory constant (Ki) was 724 nM in test [7]; above 10000 nM in [8]; above 10000 nM in test [9]; 342 nM in test [10]; above 10000 nM in [11]; above 10000 nM in test [12] (setting [16]). Also, the Ki was 5230 nM in test [13], 353 nM in test [14] and above 10000 nM in test [15] (setting [17]).

In the case of `C=CCN(CC=C)CCc1c[nH]c2cccc(O)c12` [4-HO-DALT, 4-hydroxy-N,N-diallyltryptamine], the inhibitory constant (Ki) is 2490 nM in test [1]; 693 nM in [2]; 652 nM in test [3]; 2590 nM in [4]; above 10000 nM in test [5]; 213 nM in test [6]. The inhibition constant (Ki) in test [7] is 600 nM; in test [8], above 10000 nM; in [9], above 10000 nM; in test [10], 1210 nM; in [11] it was above 10000 nM; in test [12] (setting [16]) it was above 10000 nM. The Ki in test [13], in test [14] and in test [15] (setting [17]) was above 10000 nM in each case.

Regarding `C=CCN(CC=C)CCc1c(C)[nH]c2ccc(F)cc12` [5-F-2-Me-DALT, 5-fluoro-2-methyl-N,N-diallyltryptamine], the Ki is 2010 nM in [1]; 1590 nM in test [2]; 655 nM in [3]; 17 nM in test [4]; 1920 nM in test [5]; 168 nM in test [6]. The Ki in test [7] is 493 nM; in test [8], above 10000 nM; in [9], above 10000 nM; in test [10], 53 nM; in test [11], above 10000 nM; in test [12] (setting [16]) it was above 10000 nM. Besides, the Ki in test [13] is 580 nM; in test [14], 435 nM; in test [15] (setting [17]), above 10000 nM.

As for `C=CCN(CC=C)CCc1c(C)[nH]c2ccc(OC)cc12` [5-MeO-2-Me-DALT, 5-methoxy-2-methyl-N,N-diallyltryptamine], the Ki in test [1] was determined as 2270 nM; in test [2], 900 nM; in test [3], 1150 nM; in [4] it was 241 nM; in test [5] it was 1820 nM; in test [6] it was 206 nM. In addition, the Ki in test [7] was above 10000 nM; in test [8], above 10000 nM; in [9] it was 2410 nM; in test [10], 189 nM; in test [11], above 10000 nM; in test [12] (setting [16]) it was above 10000 nM. Further, the Ki is 391 nM in test [13], 847 nM in test [14] and above 10000 nM in [15] (setting [17]).

In the case of `C=CCN(CC=C)CCc1c[nH]c2c(CC)cccc12` [7-Et-DALT, 7-ethyl-N,N-diallyltryptamine], the inhibition constant Ki in test [1] is above 10000 nM; in test [2], 2690 nM; in test [3] it was 1520 nM; in test [4] it was 65 nM; in test [5], above 10000 nM; in [6] it was above 10000 nM. In addition, the inhibitory constant (Ki) in test [7] was above 10000 nM; in [8], above 10000 nM; in test [9], above 10000 nM; in [10], 141 nM; in [11], 1880 nM; in [12] (setting [16]), above 10000 nM. Also, the Ki in test [13] was 580 nM; in test [14], 913 nM; in test [15] (setting [17]), above 10000 nM.

The record behind these values is PMC6230509 (Neuropharmacology, 2018).
